Like-named read-outs stand apart in the source and are kept apart here.
Assays:
[1] = target: almond β-glucosidase; assay: Glycosidase inhibition / KI determination, almond β-glucosidase; type: biochemical; settings: pH 5.0, read-out: KI β-Glu pH 5.0
Description: (§1) pH for Enzyme Assays--Yeast e-glucosidase and green coffee bean α-galactosidase were assayed at pH 6.6. Almond β-glucosidase and jackbean α-mannosidase were assayed at pH 5.0. Bovine liver β-galactosidase was assayed at pH 7.0.
(§2) Working Enzyme Solutions--Typical enzyme concentrations in the assay buffer for inhibitor screening were as follows: yeast α-glucosidase, 10 μL of enzyme suspension in 2.00 mL pH 6.6 phosphate-citrate buffer; almond β-glucosidase, 25 μL of enzyme solution (0.4 mg solid enzyme in 70 μL pH 5.0 NaCl/NaOAc buffer) in 5.00 mL pH 5.0 NaCl/NaOAc buffer; jackbean α-mannosidase, 5-8 μL of enzyme suspension in 2.00 mL NaCl/NaOAc buffer; green coffee bean α galactosidase, 15 μL of enzyme suspension in 1.2 mL NaCl/NaOAc buffer; bovine liver β-galactosidase, 1.7 mg solid enzyme in 850 μL, NaCl/NaOAc buffer.
(§3) An acceptable concentration of enzyme, upon hydrolysis of the corresponding glycoside, should give an absorbance reading between 0.4 and 2.0 at 400 nm. A control assay was first performed to determine whether the enzyme concentration was acceptable. The assays involved addition of working enzyme solution (0.09 mL) and deionized water (0.18 mL) to buffer at the appropriate pH (0.09 mL, phosphate-citrate). The resulting solution was incubated at 37° C. for 5 minutes. Aliquots (0.1 mL) of this preincubation mixture was then added to three separate test tubes. Substrate (the corresponding p-nitrophenyl-D-glycoside, 0.1 mL, 10 mM in appropriate buffer), which had also been incubated at 37° C., was then added to each tube at thirty-second intervals. The hydrolyses were allowed to continue for 0.25 hours and then quenched by addition of glycine buffer (2.5 mL). The absorbance of the resulting solution was measure at 400 nm. Once this control run of the system gave an absorbance within 0.4-2.0, the potential inhibitors were assayed against this working enzyme solution at final inhibitor and substrate concentrations of 1 and 5 mM, respectively. In the inhibitor assays, deionized water was replaced by the inhibitor ([…] solution in deionized water). All inhibitors were tested in triplicate, with a control (by substituting the inhibitors with deionized water) and a standard.
(§4) Five substrate solutions (usually […]) and five inhibitor solutions (usually 0-200 μM) were prepared. To a 3-mL test tube were added buffer at the appropriate pH (0.28 mL, phosphate-citrate), working enzyme solution (0.28 mL) and inhibitor solution (0.56 mL). The solution was incubated at 37° C. for 5 minutes. Aliquots (0.1 mL) of this solution were then pipetted into ten separate test tubes. Substrate solution (0.1 mL) was then added to each tube at thirty-second intervals. Duplicate reactions were terminated by addition of glycine buffer (2.5 mL) at the end of 3, 6, 8, 10, and 12 minutes. The amound of released p-nitrophenolate was measured spectrophotometrically at 400 nm. The process was repeated for all combinations of inhibitor and substrate concentrations.
(§5) The velocities (V) of substrate hydrolysis at every combination of inhibitor [I] and substrate [S] concentrations were determined by plotting the absorbance values with respect to time and t]hen calculating the slopes of the lines. Double reciprocal plots of 1/V versus 1/[S] at different [I] were then generated. The slopes of each of these lines were then plotted against [I] and the data were fitted to a straight line. The [I]-intercept gave the enzyme-inhibitor dissociation constant. KI values were also calculated from Hanes-Woolf plots of [S]/V vs. [S] by replotttng the [S]/V intercepts versus [I] and ascertaining the [I] intercept. KI values in the Table represent an average of the two calculations.

[2] = target: T1, jackbean α-mannosidase (Canavalia ensiformis, UniProt C0HJB3); assay: Glycosidase inhibition / KI determination, jackbean α-mannosidase; type: biochemical
T1 construct: host or cells: jack bean
T1 sequence (C0HJB3 1-981): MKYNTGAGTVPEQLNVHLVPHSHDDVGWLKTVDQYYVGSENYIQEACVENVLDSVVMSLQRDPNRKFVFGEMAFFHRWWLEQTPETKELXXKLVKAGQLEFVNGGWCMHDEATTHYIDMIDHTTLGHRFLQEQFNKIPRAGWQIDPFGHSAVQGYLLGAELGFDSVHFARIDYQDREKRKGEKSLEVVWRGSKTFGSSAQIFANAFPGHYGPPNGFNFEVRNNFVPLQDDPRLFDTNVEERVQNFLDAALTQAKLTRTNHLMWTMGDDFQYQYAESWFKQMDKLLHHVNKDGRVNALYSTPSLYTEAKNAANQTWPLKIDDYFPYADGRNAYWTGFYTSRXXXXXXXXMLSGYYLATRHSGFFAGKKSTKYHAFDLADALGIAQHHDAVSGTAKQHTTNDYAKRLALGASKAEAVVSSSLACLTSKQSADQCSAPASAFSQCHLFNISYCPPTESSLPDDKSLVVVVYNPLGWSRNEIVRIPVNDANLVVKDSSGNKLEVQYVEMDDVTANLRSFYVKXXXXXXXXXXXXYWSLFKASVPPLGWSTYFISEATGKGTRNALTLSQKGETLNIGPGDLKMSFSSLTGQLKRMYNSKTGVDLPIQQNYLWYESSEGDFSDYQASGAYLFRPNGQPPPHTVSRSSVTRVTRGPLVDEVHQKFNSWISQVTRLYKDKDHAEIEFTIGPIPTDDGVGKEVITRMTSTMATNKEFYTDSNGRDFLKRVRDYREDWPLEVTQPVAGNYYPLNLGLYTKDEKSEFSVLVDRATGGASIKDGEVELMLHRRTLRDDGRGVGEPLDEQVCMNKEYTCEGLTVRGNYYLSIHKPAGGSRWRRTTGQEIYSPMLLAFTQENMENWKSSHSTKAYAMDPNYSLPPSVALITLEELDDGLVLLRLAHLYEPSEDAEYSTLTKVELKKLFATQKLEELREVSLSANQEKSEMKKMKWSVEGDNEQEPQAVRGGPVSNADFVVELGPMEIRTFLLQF
Description: as §1, §2, §3, §4, §5

[3] = target: T2, bovine liver β-galactosidase (Bos taurus, UniProt F1MNT6); assay: Glycosidase inhibition / KI determination, bovine liver β-galactosidase; type: biochemical
T2 construct: from tissue; host or cells: bovine liver
T2 sequence (F1MNT6 1-469): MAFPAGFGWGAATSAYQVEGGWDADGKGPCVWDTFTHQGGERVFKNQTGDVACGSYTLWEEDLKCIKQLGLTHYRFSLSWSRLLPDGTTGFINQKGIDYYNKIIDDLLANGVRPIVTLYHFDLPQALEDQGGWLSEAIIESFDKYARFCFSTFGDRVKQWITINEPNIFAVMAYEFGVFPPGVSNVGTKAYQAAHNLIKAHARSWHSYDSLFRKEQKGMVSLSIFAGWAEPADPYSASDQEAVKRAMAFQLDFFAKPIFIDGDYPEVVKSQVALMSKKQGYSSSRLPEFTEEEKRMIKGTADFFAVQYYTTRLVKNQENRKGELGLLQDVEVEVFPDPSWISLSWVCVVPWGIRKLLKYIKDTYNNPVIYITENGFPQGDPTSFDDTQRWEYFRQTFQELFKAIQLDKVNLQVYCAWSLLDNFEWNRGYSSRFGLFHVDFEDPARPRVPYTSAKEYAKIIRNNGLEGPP
Description: as §1, §2, §3, §4
(§6) The velocities (V) of substrate hydrolysis at every combination of inhibitor [I] and substrate [S] concentrations were determined by plotting the absorbance values with respect to time and t]hen calculating the slopes of the lines. Double reciprocal plots of 1/V versus 1/[S] at different [I] were then generated. […] KI values were also calculated from Hanes-Woolf plots of [S]/V vs. [S] by replotttng the [S]/V intercepts versus [I] and ascertaining the [I] intercept. […]

[4] = test system: glucosidases; settings: cited from earlier work
[5] = target: T3, yeast α-glucosidase (Saccharomyces cerevisiae, UniProt P53341); assay: Glycosidase inhibition / KI determination, yeast α-glucosidase; type: biochemical
T3 construct: host or cells: yeast
Description: as §1, §2
(§7) An acceptable concentration of enzyme, upon hydrolysis of the corresponding glycoside, should give an absorbance reading between 0.4 and 2.0 at 400 nm. A control assay was first performed to determine whether the enzyme concentration was acceptable. The assays involved addition of working enzyme solution (0.09 mL) and deionized water (0.18 mL) to buffer at the appropriate pH (0.09 mL, phosphate-citrate). […] The absorbance of the resulting solution was measure at 400 nm. Once this control run of the system gave an absorbance within 0.4-2.0, the potential inhibitors were assayed against this working enzyme solution at final inhibitor and substrate concentrations of 1 and 5 mM, respectively. […]
(§8) Five substrate solutions (usually […]) and five inhibitor solutions (usually 0-200 μM) were prepared. […] The amound of released p-nitrophenolate was measured spectrophotometrically at 400 nm. […]
as §6, with “lines.” for “lines. Double reciprocal plots of 1/V versus 1/[S] at different [I] were then generated.”

[6] = target: T4, A. niger amyloglucosidase (Aspergillus niger, UniProt P69328); assay: Glycosidase inhibition, A. niger amyloglucosidase; type: biochemical; settings: pH 5.0, read-out: amylo-Glu pH 5.0 (class)
T4 construct: host or cells: Aspergillus niger
Description: as §3, §8
as §6, with “lines.” for “lines. Double reciprocal plots of 1/V versus 1/[S] at different [I] were then generated.”

[7] = target: green coffee bean α-galactosidase (Coffea arabica, UniProt Q42656); assay: Glycosidase inhibition, green coffee bean α-galactosidase; type: biochemical; settings: coffeebean galactosidase
Description: as §1, §2, §7, §8
as §6, with “lines.” for “lines. Double reciprocal plots of 1/V versus 1/[S] at different [I] were then generated.”

[8] = test system: HIV; settings: cited from earlier work
[9] = test system: galactosidases; settings: cited from earlier work
[10] = test system: mannosidases; settings: cited from earlier work
[11] = pH 5.0, read-out: KI α-man pH 5.0
[12] = pH 7.0, read-out: KI β-gal pH 7.0
[13] = pH 7.0, read-out: β-gal pH 7.0 (class)

Chain of green coffee bean α-galactosidase (Q42656 16-378): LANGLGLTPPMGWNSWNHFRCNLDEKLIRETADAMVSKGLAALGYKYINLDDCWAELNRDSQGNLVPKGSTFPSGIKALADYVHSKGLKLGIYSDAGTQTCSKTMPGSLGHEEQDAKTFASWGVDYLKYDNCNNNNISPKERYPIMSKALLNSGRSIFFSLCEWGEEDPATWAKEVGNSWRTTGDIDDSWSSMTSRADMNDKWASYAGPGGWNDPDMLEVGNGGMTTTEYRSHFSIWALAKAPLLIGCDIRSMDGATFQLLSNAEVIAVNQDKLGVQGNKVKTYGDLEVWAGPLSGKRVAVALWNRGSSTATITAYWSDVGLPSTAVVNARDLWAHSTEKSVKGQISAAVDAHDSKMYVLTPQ
T3 sequence (P53341 whole entry): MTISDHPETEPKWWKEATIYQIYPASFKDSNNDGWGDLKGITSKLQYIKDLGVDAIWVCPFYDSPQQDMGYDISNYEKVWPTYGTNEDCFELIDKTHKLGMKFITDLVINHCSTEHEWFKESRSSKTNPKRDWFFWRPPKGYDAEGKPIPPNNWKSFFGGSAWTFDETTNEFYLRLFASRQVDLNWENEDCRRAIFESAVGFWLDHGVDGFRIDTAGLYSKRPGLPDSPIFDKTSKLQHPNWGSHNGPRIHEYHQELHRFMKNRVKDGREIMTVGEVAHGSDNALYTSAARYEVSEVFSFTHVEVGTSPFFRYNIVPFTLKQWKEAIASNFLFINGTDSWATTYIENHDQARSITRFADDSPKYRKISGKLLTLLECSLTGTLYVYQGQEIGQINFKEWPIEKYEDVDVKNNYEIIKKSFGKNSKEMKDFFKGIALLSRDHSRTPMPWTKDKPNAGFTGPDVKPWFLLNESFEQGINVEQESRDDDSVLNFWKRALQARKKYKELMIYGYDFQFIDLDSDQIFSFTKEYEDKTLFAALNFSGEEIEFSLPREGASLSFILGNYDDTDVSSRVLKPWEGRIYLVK
T4 sequence (P69328 25-640): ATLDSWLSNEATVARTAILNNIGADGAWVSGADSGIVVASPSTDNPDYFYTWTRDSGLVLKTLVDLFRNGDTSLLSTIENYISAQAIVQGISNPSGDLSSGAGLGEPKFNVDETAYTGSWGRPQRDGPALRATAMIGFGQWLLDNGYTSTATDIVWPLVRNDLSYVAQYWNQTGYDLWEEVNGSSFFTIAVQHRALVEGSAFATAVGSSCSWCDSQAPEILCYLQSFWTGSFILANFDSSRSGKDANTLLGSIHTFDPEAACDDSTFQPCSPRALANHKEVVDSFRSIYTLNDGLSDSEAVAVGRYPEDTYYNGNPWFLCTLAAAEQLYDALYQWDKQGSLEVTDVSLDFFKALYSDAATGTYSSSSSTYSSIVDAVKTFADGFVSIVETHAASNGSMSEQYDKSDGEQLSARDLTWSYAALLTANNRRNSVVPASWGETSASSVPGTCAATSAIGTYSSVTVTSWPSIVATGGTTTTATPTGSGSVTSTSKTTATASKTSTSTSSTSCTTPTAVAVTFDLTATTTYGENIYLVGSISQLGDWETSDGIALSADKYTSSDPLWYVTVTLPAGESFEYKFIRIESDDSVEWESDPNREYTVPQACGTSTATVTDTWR

SMILES: NNC1=N[C@H](CO)[C@@H](O)[C@H](O)[C@H]1O [Compound 8, D-Glucoamidrazone]
- Ki [1]: 8.4 ± 0.9 µM
- Ki [2, 11]: 6.5 ± 3 µM
- Ki [3, 12]: 19 µM

SMILES: NC1O[C@H](CO)[C@@H](O)[C@H](O)[C@H]1O (stereo partly drawn) [glucosylamine]
- inhibition of α- and β-glucosidases ([4]; α- and β-glucosidases): inhibits both α- and β-glucosidases

SMILES: CN(C)C1=N[C@H](CO)[C@@H](O)[C@H](O)[C@H]1O [Compound 2, D-Gluco-N,N-Dimethylamidine]
- Ki [1]: 83 µM
- α-Glu pH 6.6 (class) [5]: none
- Ki [6]: > 1000 µM
- Ki ([2]; pH 5.0, read-out: α-man pH 5.0 (class)): < 100 µM
- Ki [3, 13]: < 100 µM
- α-gal pH 6.6 (class) [7]: none

SMILES: OC[C@H]1NC[C@H](O)[C@@H](O)[C@@H]1O [Compound B, 1-deoxynojirimycin]
- glucosidase inhibition [4]: potent glucosidase inhibitors
- effect on infectivity of HIV [8]: interfere with the infectivity of HIV

SMILES: OC[C@H]1N=C(NO)[C@@H](O)[C@@H](O)[C@@H]1O [Compound 15, D-Mannoamidoxime]
- Ki [2, 11]: 2 ± 0.1 µM

SMILES: OC[C@H]1NC(O)[C@H](O)[C@@H](O)[C@H]1O (stereo partly drawn) [D, galactostatin]
- galactosidase inhibition [9]: inhibits galactosidases

SMILES: OC[C@H]1NC(O)[C@H](O)[C@@H](O)[C@@H]1O (stereo partly drawn) [Nojirimycin, nojirimycin, reference compound]
- Ki [1]: 380 µM
- Ki ([5]; pH 6.6, read-out: KI α-Glu pH 6.6): 13 µM
- Ki [6]: > 1000 µM
- α-man pH 5.0 (class) [2]: moderate
- Ki [3, 13]: > 1000 µM
- α-gal pH 6.6 (class) [7]: mod-none
- glucosidase inhibition [4]: potent glucosidase inhibitors

SMILES: OC[C@H]1NC[C@@H](O)[C@@H](O)[C@@H]1O [C, 1-deoxymannojirimycin]
- mannosidase inhibition [10]: inhibits mannosidases

SMILES: NNC1=N[C@H](CO)[C@@H](O)[C@H](O)[C@@H]1O [Compound 9, D-Mannoamidrazone]
- Ki [1]: 205 ± 25 µM
- Ki [2, 11]: 0.166 ± 0.013 µM
- Ki [3, 12]: 57 ± 2.5 µM

SMILES: NC1=N[C@H](CO)[C@@H](O)[C@H](O)[C@H]1O [Compound 1, D-Glucoamidine]
- Ki [1]: 8 µM
- α-Glu pH 6.6 (class) [5]: none
- Ki [6]: > 1000 µM
- Ki [2, 11]: 9 µM
- Ki [3, 13]: < 100 µM
- α-gal pH 6.6 (class) [7]: none

SMILES: OC[C@H]1N=C(NO)[C@H](O)[C@@H](O)[C@@H]1O [Compound 13, D-Glucoamidoxime]
- Ki [1]: 13.8 ± 3 µM
- Ki [2, 11]: 10 ± 2 µM

— US5434266A, “Monosaccharide analog-based glycosidase inhibitors” (priority 1993, dated 1995)
